# Assay results: PMC10520499, “Next step in the development of mesoprogestins: the preclinical profile of EC313” (Frontiers in Endocrinology, 2023)
# “And” between values parts separate entries of the source, which are not always exact repeats. Equal entries are not always repeated. Marks after values point to notes of the source that are not given here.
# How the values were obtained:
# [1] = biological target: T1, human mineralocorticoid receptor (hMR) (Homo sapiens, UniProt P08235); assay: MR transactivation (U2OS, MMTV-LUC); format: cell-based
# T1 construct: host or cells: U2OS, transient co-transfection
# T1 sequence (P08235 1-984): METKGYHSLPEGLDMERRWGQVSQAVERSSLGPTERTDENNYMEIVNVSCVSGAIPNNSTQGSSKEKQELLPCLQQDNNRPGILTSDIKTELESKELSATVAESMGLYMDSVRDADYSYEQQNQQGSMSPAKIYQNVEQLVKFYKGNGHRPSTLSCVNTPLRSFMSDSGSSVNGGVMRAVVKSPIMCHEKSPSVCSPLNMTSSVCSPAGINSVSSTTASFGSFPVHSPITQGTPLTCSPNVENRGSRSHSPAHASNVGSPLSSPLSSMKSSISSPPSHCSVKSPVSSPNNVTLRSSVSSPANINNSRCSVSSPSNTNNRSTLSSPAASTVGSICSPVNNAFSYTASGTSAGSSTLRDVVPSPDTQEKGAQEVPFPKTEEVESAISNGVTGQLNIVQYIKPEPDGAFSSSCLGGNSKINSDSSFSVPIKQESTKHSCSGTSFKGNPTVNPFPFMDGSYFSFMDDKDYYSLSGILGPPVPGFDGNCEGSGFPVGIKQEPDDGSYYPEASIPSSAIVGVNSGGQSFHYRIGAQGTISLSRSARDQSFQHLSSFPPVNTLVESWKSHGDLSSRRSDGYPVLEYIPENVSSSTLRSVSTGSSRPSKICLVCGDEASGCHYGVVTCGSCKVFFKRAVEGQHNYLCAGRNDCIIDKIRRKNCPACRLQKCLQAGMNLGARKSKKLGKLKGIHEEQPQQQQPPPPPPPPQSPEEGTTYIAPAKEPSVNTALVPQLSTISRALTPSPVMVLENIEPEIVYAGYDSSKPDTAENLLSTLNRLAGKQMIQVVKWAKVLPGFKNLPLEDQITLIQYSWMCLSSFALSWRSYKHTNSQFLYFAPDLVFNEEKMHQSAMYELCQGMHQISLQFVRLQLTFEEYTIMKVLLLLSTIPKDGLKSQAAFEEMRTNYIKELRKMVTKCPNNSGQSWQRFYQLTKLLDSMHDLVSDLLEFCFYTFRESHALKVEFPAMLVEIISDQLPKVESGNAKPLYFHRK
# Description: The U2OS cell line which expresses the mineralocorticoid receptor was used to study the gene expression on the transcriptional level under the influence of EC313 and the reference compound. The cells were transfected with a vector encoding a human full-length mineralocorticoid receptor (hMR) linked to the reporter vector MMTV/LUC. Cells were transiently and stably transfected in order to reach high protein expression. Next, co-transfected U2OS cells carrying mineralocorticoid receptors and reporter vector MMTV/LUC were stimulated by the tested compounds (Aldosterone or EC313) or the mixture: aldosterone and an appropriate range of concentrations of EC313. The agonist and antagonist properties of EC313 toward tested receptor MR were analyzed using luminescence detection.
# In order to develop the transfection assay, plasmid-included vectors coding sequences for the receptor as well as the reporter gene were generated and isolated, respectively. Vector pcDNA3.1 coding sequence for full length of human MR (MR cDNA ORF clone in pcDNA3.1+/C-(K)-DYK) was used as an expression vector for MR and was linked to the reporter system (pGL4.36-MMTV/LUC) building with vector pGL4.36 coding the mineralocorticoid responsive element (MMTV) and firefly luciferase [luc2P/Hygro].
# Transfection was performed on a 96-well plate (15.5x10^3 cells per well) in culture medium (RPMI phenol red, 10% FBS, L-Glu) w/o antibiotics according to the manufacturer’s specification. Prior to transfection, plated cells were approximately 70%–80% confluent. 24h later, cells were treated with test compounds overnight.
# The properties of EC313 to induce/inhibit tested receptor was studied in agonistic and antagonistic approaches. Co-transfected U2OS cells were stimulated with either aldosterone (0.009 nM - 1200 nM) or EC313 (0.009 nM - 1200 nM) in order to determine and compare the agonist potential of test compounds. The antagonistic activity was checked in competitive interaction between EC313 (0.009 nM - 1200 nM) and 0.4 nM of Aldosterone.
# [2] = system: estrogen-primed endometrium of immature rabbits; assay: McPhail assay, estrogen-primed rabbit endometrium; format: in vivo; conditions: 10 and 30 mg/animal/day; progesterone 1 mg/animal/day; p< 0.05
# PR-B – NCoR = biological target: T2, PR-B – NCoR (Homo sapiens, UniProt P06401); assay: PR-B – NCoR interaction, two-hybrid system; format: cell-based
# T2 construct: expressed in transfected cells
# Description: The active recruitment of the nuclear corepressor NCoR results in transcriptional inactivity of the PR. So, the potency of PR ligands to induce the interaction of PR with NCoR provides information on the antagonistic potency of the ligand. Therefore, the capacity of EC313 to induce the interaction of PR-B with the corepressor NCoR in comparison with reference ligands was studied. All test compounds except the receptor agonist Promegestone induced PR to interact with NCoR.
# Figure 11 (A) PR-B interaction with NCoR using a two-hybrid assay. Dose response curve. […] (B) Liganded PR-Binteraction with c-SRC kinase. The data presented are from five independent experiments. Signals are represented as mean luminescence ± SD normalized to maximal promegestone activity equal to 100%.
# [3] = system: estrogen-primed endometrium of immature rabbits; assay: McPhail assay, estrogen-primed rabbit endometrium; format: in vivo
# Method: The secretory transformation of estrogen-primed endometrium of immature rabbits indicates the strength of the progestagenic action on the endometrium of the chosen test compound. The simultaneous administration of test compounds with progesterone can indicate potential anti-progestagenic actions.
# Female rabbits received daily s.c. injections of 5.0 µg 17β-Estradiol/per animal for 6 days leading to the proliferation of the endometrium. From day 7 to day 13 the animals received doses of vehicle, EC313 (1 to 30 mg/animal/day s.c) or progesterone. On day 14, the animals were sacrificed and the uteri were processed for histological evaluation and the secretory endometrial transformation was rated according to a modified McPhail score (1 – 4).
# The rating scale ranges from 1 (no or very low secretory, transformation, or agonistic activity) to 4 (highest secretory, transformation, or agonistic activity). The McPhail score of 2 (median) was selected for the comparison. The antagonistic activity was measured by the concomitant administration of progesterone ([…] s.c.).
# [4] = system: adrenalectomized male Wistar rats; assay: Thymus-Involution-Test in adrenalectomized rats; format: in vivo, rat; conditions: doses up to 100 mg/animal/day s.c., 4 days
# Method: The standard Thymus-Involution-Test in rats was used. […] On day 5 the animals were sacrificed, and the thymus and spleen weights were determined. Reduced weight of the thymus indicated glucocorticoid activity. Stopping the dexamethasone-induced thymus reduction by the test compound indicated anti-glucocorticoid activity.
# T2 sequence (P06401 whole entry): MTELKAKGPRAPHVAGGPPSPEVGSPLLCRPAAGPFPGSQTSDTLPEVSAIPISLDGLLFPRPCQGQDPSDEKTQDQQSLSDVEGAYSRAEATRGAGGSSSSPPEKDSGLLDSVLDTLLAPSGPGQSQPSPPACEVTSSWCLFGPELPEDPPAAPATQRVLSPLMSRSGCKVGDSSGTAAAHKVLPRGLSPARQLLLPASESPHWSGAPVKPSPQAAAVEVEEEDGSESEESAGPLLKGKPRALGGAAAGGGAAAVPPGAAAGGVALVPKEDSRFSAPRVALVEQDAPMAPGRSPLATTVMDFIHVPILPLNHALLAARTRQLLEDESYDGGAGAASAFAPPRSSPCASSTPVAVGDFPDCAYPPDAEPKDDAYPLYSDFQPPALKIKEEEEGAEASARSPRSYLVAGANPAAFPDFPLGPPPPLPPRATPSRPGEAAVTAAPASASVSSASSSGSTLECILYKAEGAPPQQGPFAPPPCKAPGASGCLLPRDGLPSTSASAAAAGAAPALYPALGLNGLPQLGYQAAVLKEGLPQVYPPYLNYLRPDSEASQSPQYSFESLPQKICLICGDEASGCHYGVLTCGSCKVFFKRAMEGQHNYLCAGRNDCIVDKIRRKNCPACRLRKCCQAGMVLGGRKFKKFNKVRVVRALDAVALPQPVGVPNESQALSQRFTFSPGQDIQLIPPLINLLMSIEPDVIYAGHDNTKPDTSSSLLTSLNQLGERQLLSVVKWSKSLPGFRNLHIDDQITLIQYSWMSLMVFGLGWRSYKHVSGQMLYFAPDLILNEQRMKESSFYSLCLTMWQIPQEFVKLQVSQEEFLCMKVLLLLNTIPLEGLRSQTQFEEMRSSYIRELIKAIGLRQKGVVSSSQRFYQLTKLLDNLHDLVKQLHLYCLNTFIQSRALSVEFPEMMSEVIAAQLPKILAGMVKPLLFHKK
# T2 sequence (O75376 whole entry partner): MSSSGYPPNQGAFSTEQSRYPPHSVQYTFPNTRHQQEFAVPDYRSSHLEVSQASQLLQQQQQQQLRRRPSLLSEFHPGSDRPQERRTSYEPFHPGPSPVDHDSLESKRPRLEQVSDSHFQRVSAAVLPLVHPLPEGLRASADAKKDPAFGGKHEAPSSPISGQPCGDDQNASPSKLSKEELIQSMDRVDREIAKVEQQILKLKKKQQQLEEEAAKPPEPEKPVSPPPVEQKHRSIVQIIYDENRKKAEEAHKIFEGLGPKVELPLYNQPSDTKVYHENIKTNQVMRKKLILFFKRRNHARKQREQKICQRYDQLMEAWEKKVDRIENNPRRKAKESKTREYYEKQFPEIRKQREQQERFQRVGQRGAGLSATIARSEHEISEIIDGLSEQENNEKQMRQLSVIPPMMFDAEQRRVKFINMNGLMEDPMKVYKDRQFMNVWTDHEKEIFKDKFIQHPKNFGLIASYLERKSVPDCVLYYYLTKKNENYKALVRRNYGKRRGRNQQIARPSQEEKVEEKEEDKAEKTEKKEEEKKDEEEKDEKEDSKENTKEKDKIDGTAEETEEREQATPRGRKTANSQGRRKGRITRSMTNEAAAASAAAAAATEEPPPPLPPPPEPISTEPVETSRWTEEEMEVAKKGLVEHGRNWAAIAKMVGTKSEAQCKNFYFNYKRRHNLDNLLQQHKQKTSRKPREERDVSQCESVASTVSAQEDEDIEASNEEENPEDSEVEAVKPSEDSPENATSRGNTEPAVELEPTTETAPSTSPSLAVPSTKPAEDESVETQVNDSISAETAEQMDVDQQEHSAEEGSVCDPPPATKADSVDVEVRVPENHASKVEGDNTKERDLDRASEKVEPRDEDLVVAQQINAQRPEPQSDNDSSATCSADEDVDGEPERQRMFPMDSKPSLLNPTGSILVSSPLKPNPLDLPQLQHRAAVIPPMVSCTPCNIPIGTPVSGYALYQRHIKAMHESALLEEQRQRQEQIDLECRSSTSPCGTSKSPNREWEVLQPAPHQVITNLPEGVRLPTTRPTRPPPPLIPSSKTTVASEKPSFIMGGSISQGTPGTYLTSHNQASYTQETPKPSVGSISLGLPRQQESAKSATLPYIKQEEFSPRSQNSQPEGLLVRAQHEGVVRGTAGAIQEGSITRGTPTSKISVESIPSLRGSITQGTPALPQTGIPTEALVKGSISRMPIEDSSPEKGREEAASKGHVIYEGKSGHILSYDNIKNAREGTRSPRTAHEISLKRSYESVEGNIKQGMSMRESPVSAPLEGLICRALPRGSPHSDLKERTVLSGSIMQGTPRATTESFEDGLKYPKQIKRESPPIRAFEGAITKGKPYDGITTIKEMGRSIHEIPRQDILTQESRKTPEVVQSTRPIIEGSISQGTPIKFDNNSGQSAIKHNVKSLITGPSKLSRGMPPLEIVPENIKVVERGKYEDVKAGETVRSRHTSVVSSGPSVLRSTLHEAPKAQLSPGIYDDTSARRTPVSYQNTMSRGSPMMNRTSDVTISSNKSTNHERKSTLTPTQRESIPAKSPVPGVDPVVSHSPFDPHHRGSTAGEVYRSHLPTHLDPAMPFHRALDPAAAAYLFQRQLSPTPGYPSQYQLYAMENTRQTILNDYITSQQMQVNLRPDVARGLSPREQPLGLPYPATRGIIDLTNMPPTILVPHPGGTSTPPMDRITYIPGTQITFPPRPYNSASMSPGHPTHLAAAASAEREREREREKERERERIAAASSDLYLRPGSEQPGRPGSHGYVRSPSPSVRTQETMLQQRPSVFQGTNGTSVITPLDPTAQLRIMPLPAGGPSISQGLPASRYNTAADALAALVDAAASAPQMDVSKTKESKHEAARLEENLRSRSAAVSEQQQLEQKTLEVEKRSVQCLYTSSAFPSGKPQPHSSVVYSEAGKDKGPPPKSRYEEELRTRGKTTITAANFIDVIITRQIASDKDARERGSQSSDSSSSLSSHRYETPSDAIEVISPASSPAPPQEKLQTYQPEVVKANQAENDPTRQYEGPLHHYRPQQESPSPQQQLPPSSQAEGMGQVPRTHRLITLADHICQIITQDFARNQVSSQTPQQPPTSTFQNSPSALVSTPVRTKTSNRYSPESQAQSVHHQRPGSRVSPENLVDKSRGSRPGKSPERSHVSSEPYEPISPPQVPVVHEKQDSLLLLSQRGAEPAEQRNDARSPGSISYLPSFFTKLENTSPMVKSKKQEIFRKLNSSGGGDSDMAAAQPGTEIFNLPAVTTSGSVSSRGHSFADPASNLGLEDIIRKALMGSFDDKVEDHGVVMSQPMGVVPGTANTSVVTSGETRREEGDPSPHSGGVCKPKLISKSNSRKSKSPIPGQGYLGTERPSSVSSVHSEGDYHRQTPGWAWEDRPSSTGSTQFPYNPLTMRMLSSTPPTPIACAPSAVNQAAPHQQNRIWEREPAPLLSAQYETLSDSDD
smiles,measurement,setting,value
C[C@]12C[C@H](c3ccc(-c4ccoc4)cc3)C3=C4CCC(=O)C=C4CC[C@H]3[C@@H]1CC[C@]21OCCC1=C(F)F [EC313],transactivation of hMR (agonism),[1],does not transactivate hMR
same,fold lower potency than Spironolactone,[1]; MR antagonism,approximately 80 fold
same,IC50,"[1]; MR, 0.4 nM Aldosterone, read-out: IC50, antagonism of Aldosterone-induced transactivation",2000 nM and ~2000 nM
same,antagonistic action with co-administered progesterone,[2],significant
same,"efficacy relative to Ulipristal acetate, NCoR interaction",PR-B – NCoR,83%
same,"fold lower potency than Ulipristal acetate, NCoR interaction",PR-B – NCoR,200 fold
same,induction of PR interaction with NCoR,PR-B – NCoR,limited ability to induce progesterone receptor interaction with NCoR
same,Quotient between antagonistic and agonistic action,[3]; McPhail score 2 doses,~ 10.0*
same,"maximal effect, McPhail score (average per treatment group)","[3]; agonistic, 1 to 30 mg/animal/day s.c., scale 1-4",≤ 2.5
same,Score 2 for PR-agonistic activity,[3]; dose giving McPhail score 2,~ 1.0 mg/animal/day s.c.
same,Score 2 for PR-antagonistic activity,"[3]; dose giving McPhail score 2, concomitant progesterone (1 g/animal/day [sic] s.c.)",~ 10.0 mg/animal/day s.c.
same,relatively more agonistic than antagonistic effects in comparison with Asoprisnil,"[3]; rabbit, in vivo",approx. 7 times
same,glucocorticoid / anti-glucocorticoid activity (thymus weight),[4],neither glucocorticoid nor anti-glucocorticoid activities
